Assay: In vivo biodistribution of ^225Ac complexes after intravenous injection
Design: species or system C57BL/6 mice
Procedure: In Vivo Biodistribution of ^225Ac Complexes of Macropa and DOTA. All experiments were approved by the Institutional Animal Care Committee (IACC) of the University of British Columbia and were performed in accordance with the Canadian Council on Animal Care Guidelines. A total of 9 female C57BL/6 mice (6-8 weeks old, 20-25 g) were used for the biodistribution study of each radiometal complex, n=3 for each time point.
Macropa (100 μL of a 1 mg/mL solution in NH4OAc) was diluted with 387 μL of NH4OAc (1 M, pH 7), and an aliquot (203 μL) of ^225Ac(NO3)3 (˜157 kBq) was then added; the pH of this solution was adjusted to 6.5-7 by the addition of 1 M NaOH (210 μL, trace metal grade). After 5 min at ambient temperature, the reaction solution was analyzed by TLC (0.4 M pH 4 sodium citrate as the eluent), which confirmed >95% radiochemical yield. The reaction was allowed to proceed overnight, and the radiochemical yield was again confirmed to be >95% the following morning. At this time, mice were anesthetized by 2% isoflurane, and approximately 100 μL (10-15 kBq) of the [^225Ac(macropa)]^+ complex were injected into the tail vein of each mouse. After injection, mice were allowed to recover and roam freely in their cages, and were euthanized by CO2 inhalation at 15 min, 1 h, or 5 h (n=3 at each time point) post-injection. Blood was collected by cardiac puncture and placed into an appropriate test tube for scintillation counting. Tissues collected included heart, liver, kidneys, lungs, small intestine, large intestine, brain, bladder, spleen, stomach, pancreas, bone, thyroid, tail, urine, and feces. Tissues were weighed and then counted with a calibrated gamma counter (Packard, Cobra II model 5002) using three energy windows: 60-120 keV (window A), 180-260 keV (window B), and 400-480 keV (window C). Counting was performed both immediately after sacrifice and after 7 days; counts were decay corrected from the time of injection and then converted to the percentage of injected dose (% ID) per gram of tissue (% ID/g). No differences were noted between the data; therefore, the biodistributions are reported using the data acquired immediately using window A.
The biodistribution studies of [^225Ac(DOTA)]^− and ^225Ac(NO3)3 were carried out as described above for [^225Ac(macropa)]^+, with the following modifications. [^225Ac(DOTA)]^− was prepared by adding ^225Ac(NO3)3 (338 μL, 1.1 MBq) to a solution of DOTA (100 μg, 20 mg/mL in H2O) in NH4OAc (467 μL, 0.15 M, pH 7). The pH of the solution was adjusted to 7 using NH4OAc (150 μL, 1 M, pH 7) and the solution was heated at 85° C. for 45 min. RCY>99% was confirmed by TLC as described above. [^225Ac(DOTA)]^− was diluted with saline to a final concentration of 0.05 MBq/100 μL, and 100 μL were injected into each mouse. ^225Ac(NO3)3 (˜58 μL, 0.4 MBq) was diluted and injected in the same manner as [^225Ac(DOTA)]^−. One mouse that was to be euthanized at the 5 h time point in the [^225Ac(DOTA)]^− study died shortly after injection. In the same manner, one mouse that was to be euthanized at the 1 h time point in the ^225Ac(NO3)3 study died.
The in vivo stability [^225Ac(macropa)]^+ was examined by comparing its biodistribution to those of ^225Ac(NO3)3 and [^225Ac(DOTA)]^−. C57BL/6 mice were injected via tail vein with 10-50 kBq of each radiometal complex and were sacrificed after 15 min, 1 h, or 5 h. The amount of ^225Ac retained in each organ was quantified by gamma counting and reported as the percent of injected dose per gram of tissue (% ID/g). The results of these studies are compiled in Tables 1-3. Inadequate stability of an ^225Ac complex leading to the loss of radioisotope in vivo is manifested by the accumulation of ^225Ac in the liver, spleen, and bone of mice.^[11,12,32] […] The biodistribution profile of [^225Ac(macropa)]^+ (FIG. 3B) differs markedly from that of ^225Ac(NO3)3. […]

[1] = 1 h after i.v. injection, energy window B (180-260 keV)
[2] = 1 h after i.v. injection, energy window C (400-480 keV)
[3] = 5 h after i.v. injection, energy window A (60-120 keV)
[4] = 5 h after i.v. injection, energy window B (180-260 keV)
[5] = 5 h after i.v. injection, energy window C (400-480 keV)
[6] = i.v. injection, C57BL/6 mice, up to 5 h

O=C([O-])c1cccc(CN2CCOCCOCCN(Cc3cccc(C(=O)[O-])n3)CCOCCOCC2)n1.[225Ac+3] [[^225Ac(macropa)]^+]
% ID/g in pancreas [1]: 0.12 % ID/g
% ID/g in small intestines [1]: 0.94 % ID/g
% ID/g in spleen [1]: 0.23 % ID/g
% ID/g in stomach [1]: 0.33 % ID/g
% ID/g in tail [1]: 1.82 % ID/g
% ID/g in thyroids [1]: 0.10 % ID/g
% ID/g in urine [1]: 517.19 % ID/g
% ID/g in bladder [2]: 9.00 % ID/g
% ID/g in blood [2]: 0.54 % ID/g
% ID/g in bone (femur + joint) [2]: 0.70 % ID/g
% ID/g in brain [2]: 0.23 % ID/g
% ID/g in feces [2]: 0.69 % ID/g
% ID/g in heart [2]: 0.23 % ID/g
% ID/g in kidneys [2]: 17.38 % ID/g
% ID/g in large intestines [2]: 0.79 % ID/g
% ID/g in liver [2]: 1.08 % ID/g
% ID/g in lungs [2]: 0.84 % ID/g
% ID/g in pancreas [2]: 0.43 % ID/g
% ID/g in small intestines [2]: 1.62 % ID/g
% ID/g in spleen [2]: 0.48 % ID/g
% ID/g in stomach [2]: 0.17 % ID/g
% ID/g in tail [2]: 2.57 % ID/g
% ID/g in thyroids [2]: 8.34 % ID/g
% ID/g in urine [2]: 641.63 % ID/g
% ID/g in bladder [3]: 4.25 % ID/g
% ID/g in blood [3]: 0.01 % ID/g
% ID/g in bone (femur + joint) [3]: 0.05 % ID/g
% ID/g in brain [3]: 0.02 % ID/g
% ID/g in feces [3]: 3.46 % ID/g
% ID/g in heart [3]: 0.10 % ID/g
% ID/g in kidneys [3]: 0.74 % ID/g
% ID/g in large intestines [3]: 0.49 % ID/g
% ID/g in liver [3]: 0.39 % ID/g
% ID/g in lungs [3]: 0.01 % ID/g
% ID/g in pancreas [3]: 0.10 % ID/g
% ID/g in small intestines [3]: 0.29 % ID/g
% ID/g in spleen [3]: 0.11 % ID/g
% ID/g in stomach [3]: 0.01 % ID/g
% ID/g in tail [3]: 0.14 % ID/g
% ID/g in thyroids [3]: 0.10 % ID/g
% ID/g in urine [3]: 12.78 % ID/g
% ID/g in bladder [4]: 3.69 % ID/g
% ID/g in blood [4]: 0.00 % ID/g
% ID/g in bone (femur + joint) [4]: 0.02 % ID/g
% ID/g in brain [4]: −0.01 % ID/g
% ID/g in feces [4]: 3.49 % ID/g
% ID/g in heart [4]: −0.04 % ID/g
% ID/g in kidneys [4]: 0.78 % ID/g
% ID/g in large intestines [4]: 0.45 % ID/g
% ID/g in liver [4]: 0.36 % ID/g
% ID/g in lungs [4]: −0.05 % ID/g
% ID/g in pancreas [4]: −0.12 % ID/g
% ID/g in small intestines [4]: 0.29 % ID/g
% ID/g in spleen [4]: 0.09 % ID/g
% ID/g in stomach [4]: 0.04 % ID/g
% ID/g in tail [4]: 0.13 % ID/g
% ID/g in thyroids [4]: −6.94 % ID/g
% ID/g in urine [4]: 13.51 % ID/g
% ID/g in bladder [5]: 8.52 % ID/g
% ID/g in blood [5]: 0.04 % ID/g
% ID/g in bone (femur + joint) [5]: 0.08 % ID/g
% ID/g in brain [5]: −0.01 % ID/g
% ID/g in feces [5]: 5.27 % ID/g
% ID/g in heart [5]: 0.28 % ID/g
% ID/g in kidneys [5]: 1.07 % ID/g
% ID/g in large intestines [5]: 0.68 % ID/g
% ID/g in liver [5]: 0.55 % ID/g
% ID/g in lungs [5]: 0.15 % ID/g
% ID/g in pancreas [5]: 0.13 % ID/g
% ID/g in small intestines [5]: 0.42 % ID/g
% ID/g in spleen [5]: 0.43 % ID/g
% ID/g in stomach [5]: 0.13 % ID/g
% ID/g in tail [5]: 0.28 % ID/g
% ID/g in thyroids [5]: 19.89 % ID/g
% ID/g in urine [5]: 22.27 % ID/g
route of excretion (in words) (i.v. injection, C57BL/6 mice): Most of the injected dose was renally excreted
clearance from blood / mice (in words) [6]: rapidly cleared from mice
organ accumulation (in words) [6]: did not accumulate in any organ

Source: patent publication US11554182B2, “Macrocyclic complexes of alpha-emitting radionuclides and their use in targeted radiotherapy of cancer” (CORNELL UNIVERSITY, priority 2017, dated 2023)
